Measured values taken from patent US20090047246A1, “NOVEL INHIBITORS OF HEPATITIS C VIRUS REPLICATION” (InterMune, Inc., priority 2007, published 2009).
Like-named read-outs stand apart in the source and are kept apart here.

Target: T1, HCV NS3 helicase (Hepatitis C virus genotype 1b, UniProt P26663)
T1 construct: full-length NS3 (1-631), purified at Array BioPharma
Experiment: HCV Helicase Prompt FRET Assay (Example A)
Format: biochemical
Details: for IC50: read-out: IC50 Activity
Experimental: Test compounds were diluted to 2.5 mM by adding 6 uL of a 10 mM solution of the compound to 18 uL of DMSO in a 384-well Costar polypropylene plate. Serial dilutions (2.5×) were performed in the plate using DMSO as the diluent. 1 ul of solution was transferred from each well to a new 384-well Costar polypropylene plate.
A 2× mixture was prepared containing 100 nM helicase substrate, 500 nM helicase capture strand (CS), and 600 μM ATP by diluting stock solutions with assay buffer consisting of 25 mM MOPS, pH 7.0, and 1.5 mM MgCl2, 0.005% (v/v) Triton X-100. Stock helicase substrate was prepared by annealing a FAM-labeled oligonucleotide to a BHQ-1 labeled oligonucleotide, which were both custom synthesized and HPLC-purified at Biosearch Technologies. The FAM-labeled and BHQ-labeled oligonucleotide had the following sequences:
The helicase capture strand was custom synthesized and purified at Integrated DNA Technologies. The helicase capture strand had the following sequence:
The ATP solution was prepared in MilliQ water, pH adjusted to approximately 7 with NaOH. ATP powder was obtained from Sigma (A-7699). The concentration was determined via A260 (ext. coeff=15,400 M^−1cm^−1).
11.5 μL of assay buffer was added to all wells of the plate containing luL of test compound. 5 μL of the Compound/assay buffer mixture was added to a black polystyrene 384-well Proxiplate. A 4× Enzyme solution was prepared by diluting enzyme stock containing full-length NS3 (1-631), purified at Array BioPharma, with assay buffer. 5 μL of the 4× Enzyme solution was added to the Proxiplate and incubated for 5 minutes (for control wells lacking enzyme, assay buffer was used instead). 10 μL of 2× substrate/CS/ATP mixture was then added to all wells of Proxiplate. The final assay conditions included 50 nM Substrate, 250 nM Capture Strand, 300 μM ATP, 5 or 6 nM Enzyme, and 2% (v/v) DMSO. The reaction proceeded for 70 cycles (˜30 min.) on an Envision at room temperature. The plate was read using the Envision (top mirror=FITC; Excitation filter=FITC 485; Emission filter=FITC 535). The fluorescence intensity was recorded for a total of 30 minutes. The initial rates of the reactions was calculated and used to calculate IC50 values. The IC50 curve fitting was performed using either a 4-parameter or 5-parameter logistic equation.

[1] = HCV NS3 helicase, tables do not say whether Example A or Example B assay

T1 sequence (P26663 1027-1657): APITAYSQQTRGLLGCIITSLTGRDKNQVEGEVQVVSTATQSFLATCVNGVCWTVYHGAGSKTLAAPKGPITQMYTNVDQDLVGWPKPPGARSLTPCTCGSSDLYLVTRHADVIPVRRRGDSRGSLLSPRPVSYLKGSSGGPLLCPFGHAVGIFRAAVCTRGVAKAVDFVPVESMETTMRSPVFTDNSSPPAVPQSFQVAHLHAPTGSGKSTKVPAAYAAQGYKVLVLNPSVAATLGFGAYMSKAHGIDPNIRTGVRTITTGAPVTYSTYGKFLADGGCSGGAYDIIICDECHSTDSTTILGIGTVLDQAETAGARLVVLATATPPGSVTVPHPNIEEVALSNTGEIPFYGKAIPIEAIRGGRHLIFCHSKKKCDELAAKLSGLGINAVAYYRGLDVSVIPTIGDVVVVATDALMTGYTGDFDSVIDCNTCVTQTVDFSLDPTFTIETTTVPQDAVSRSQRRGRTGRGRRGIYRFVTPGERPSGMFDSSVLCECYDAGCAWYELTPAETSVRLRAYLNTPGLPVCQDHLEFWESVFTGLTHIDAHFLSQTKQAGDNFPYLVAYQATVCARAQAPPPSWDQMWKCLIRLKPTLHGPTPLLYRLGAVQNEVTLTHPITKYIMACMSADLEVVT

Row | Compound | IC50 [1] [µM] | further results
1 | CCOC(=O)Cc1cn(Cc2c(C)sc3ccc(Cl)cc23)c2cc(-c3cc(N)cc(N)c3)ccc12 [Compound 617] |  | IC50 Activity (Table 27, compounds made using Scheme 34): B or C
2 | CCOC(=O)Cc1cn(Cc2cccc(N(C)c3ccccc3Cl)c2)c2cc(-c3cccc(O)c3)ccc12 [Compound 624] |  | IC50 (Table 30, compounds made using Scheme 37): 10 to 50 µM
3 | O=C(O)Cc1cn(Cc2csc3ccc(Cl)cc23)c2ccc(Br)cc12 [Example 100] | 10 to 50 | 
4 | O=C(O)Cc1cn(Cc2cccc(OCc3ccccc3)c2)c2ccc(Br)cc12 [Example 101] | < 10 | 
5 | CC(C)c1ccc(Cn2cc(CC(=O)O)c3cc(Br)ccc32)cc1 [Example 102] | 10 to 50 | 
6 | O=C(O)Cc1cn(Cc2ccccc2C(F)(F)F)c2ccc(Br)cc12 [Example 103] | 10 to 50 | 
7 | O=C(O)Cc1cn(CCCc2ccccc2)c2ccc(Br)cc12 [Example 104] | 10 to 50 | 
8 | O=C(O)Cc1cn(Cc2cccc(Oc3ccccc3)c2)c2ccc(Br)cc12 [Example 105] | < 10 | 
9 | COc1ccc2c(c1)c(CC(=O)O)cn2Cc1csc2ccc(Cl)cc12 [Example 106] | 10 to 50 | 
10 | COc1ccc2c(c1)c(CC(=O)O)cn2Cc1cccc(OCc2ccccc2)c1 [Example 107] | 10 to 50 | 
11 | O=C(O)Cc1cn(Cc2cccc(Cl)c2)c2ccc(Br)cc12 [Example 108] | 10 to 50 | 
12 | O=C(O)Cc1cn(Cc2ccc(-c3ccccc3)cc2)c2ccc(Br)cc12 [Example 109] | < 10 | 
13 | O=C(O)Cc1cn(Cc2ccc(Cl)c(Cl)c2)c2ccc(Br)cc12 [Example 110] | 10 to 50 | 
14 | COc1cccc(Cn2cc(CC(=O)O)c3cc(Br)ccc32)c1 [Example 111] | 10 to 50 | 
15 | O=C(O)Cc1cn(Cc2cccc(-c3ccccc3)c2)c2ccc(OCc3ccccc3)cc12 [Example 112] | < 10 | 
16 | O=C(O)Cc1cn(Cc2cccc(Br)c2)c2ccc(OCc3ccccc3)cc12 [Example 113] | 10 to 50 | 
17 | CC(C)c1ccc(Cn2cc(CC(=O)O)c3cc(OCc4ccccc4)ccc32)cc1 [Example 114] | 10 to 50 | 
18 | O=C(O)Cc1cn(Cc2cccc(Oc3ccccc3)c2)c2ccc(OCc3ccccc3)cc12 [Example 115] | < 10 | 
19 | O=C(O)Cc1cn(Cc2cccc(OCc3ccccc3)c2)c2ccccc12 [Example 116] | 10 to 50 | 

Row | Compound | IC50 [1] [µM] | further results
20 | CN(C)C(=O)c1cccc(-c2cccc(Cn3cc(CC(=O)O)c4cc(OCc5ccccc5)ccc43)c2)c1 [Example 117] | 10 to 50 | 
21 | Cc1cc(-c2cccc(Cn3cc(CC(=O)O)c4cc(OCc5ccccc5)ccc43)c2)ccc1F [Example 118] | < 10 | 
22 | O=C(O)Cc1cn(Cc2cccc(-c3cncnc3)c2)c2ccc(OCc3ccccc3)cc12 [Example 119] | 10 to 50 | 
23 | O=C(O)Cc1cn(Cc2cccc(Oc3ccc(F)cc3)c2)c2ccc(OCc3ccccc3)cc12 [Example 120] | < 10 | 
24 | O=C(O)Cc1cn(Cc2csc3ccc(Cl)cc23)c2ccccc12 [Example 121] | 10 to 50 | 
25 | O=C(O)Cc1cn(Cc2ccc(-c3ccccc3)cc2)c2ccc(OCc3ccccc3)cc12 [Example 122] | < 10 | 
26 | O=C(O)Cc1cn(Cc2cccc(I)c2)c2ccc(OCc3ccccc3)cc12 [Example 123] | < 10 | 
27 | Cc1cc(-c2cccc(Cn3cc(CC(=O)O)c4cc(OCc5ccccc5)ccc43)c2)on1 [Example 124] | 10 to 50 | 
28 | O=C(O)Cc1cn(Cc2csc(-c3ccccc3)n2)c2ccc(OCc3ccccc3)cc12 [Example 125] | 10 to 50 | 
29 | O=C(O)Cc1cn(Cc2noc(-c3ccccc3)n2)c2ccc(OCc3ccccc3)cc12 [Example 126] | 10 to 50 | 
30 | O=C(O)Cc1cn(Cc2cccc(-c3c[nH]nn3)c2)c2ccc(OCc3ccccc3)cc12 [Example 127] | 10 to 50 | 
31 | CCOC(=O)c1ccc(Cn2cc(CC(=O)O)c3cc(OCc4ccccc4)ccc32)o1 [Example 128] | 10 to 50 | 
32 | O=C(O)Cc1cn(Cc2cccc(-c3cccc(Cl)c3)c2)c2ccc(OCc3ccccc3)cc12 [Example 129] | < 10 | 
33 | O=C(O)Cc1cn(Cc2cccc(-c3cccnc3)c2)c2ccc(OCc3ccccc3)cc12 [Example 130] | 10 to 50 | 
34 | O=C(O)Cc1cn(Cc2cccc(-c3cn[nH]c3)c2)c2ccc(OCc3ccccc3)cc12 [Example 131] | < 10 | 
35 | O=C(O)Cc1cn(Cc2csc3ccc(F)cc23)c2ccc(Br)cc12 [Example 132] | 10 to 50 | 
36 | O=C(O)Cc1cn(Cc2csc3ccc(F)cc23)c2ccccc12 [Example 133] | 10 to 50 | 
37 | O=C(O)Cc1cn(Cc2cc(F)cc(C(F)(F)F)c2)c2ccc(Br)cc12 [Example 134] | 10 to 50 | 
38 | O=C(O)Cc1cn(Cc2csc3ccc(Br)cc23)c2ccc(Br)cc12 [Example 135] | < 10 | 

More lines, main results first:

Row | IC50 [1] [µM] | Compound | further results
39 | < 10 | COc1ccc2scc(Cn3cc(CC(=O)O)c4cc(Br)ccc43)c2c1 [Example 136] | 
40 | 10 to 50 | O=C(O)Cc1cn(Cc2ccc(Cl)s2)c2ccc(Br)cc12 [Example 137] | 
41 | 10 to 50 | O=C(O)Cc1cn(Cc2cc(-c3ccccc3)no2)c2ccc(Br)cc12 [Example 138] | 
42 | < 10 | CC(C)Oc1ccc2scc(Cn3cc(CC(=O)O)c4cc(Br)ccc43)c2c1 [Example 140] | 
43 | 10 to 50 | CC(C)Oc1ccc2scc(Cn3cc(CC(=O)O)c4cc(Br)ccc43)c2c1 [Example 141] | 
44 | 10 to 50 | CCOc1ccc2scc(Cn3cc(CC(=O)O)c4ccccc43)c2c1 [Example 142] | 
45 | 10 to 50 | O=C(O)Cc1cn(-c2ccc3ccccc3c2)c2ccccc12 [Example 143] | 
46 | < 10 | COc1cccc(-c2ccc(-n3cc(CC(=O)O)c4ccccc43)cc2)c1 [Example 144] | 
47 | < 10 | O=C(O)Cc1cn(-c2ccc(-c3cccc(Cl)c3)cc2)c2ccccc12 [Example 145] | 
48 | < 10 | Cc1ccc2sc(-n3cc(CC(=O)O)c4ccccc43)cc2c1 [Example 146] | 
49 | 10 to 50 | O=C(O)Cc1cn(-c2ccc3sccc3c2)c2ccccc12 [Example 147] | 
50 | 10 to 50 | O=C(O)Cc1cn(-c2ccc3c(c2)CCC3=O)c2ccccc12 [Example 148] | 
51 | < 10 | CCc1cc2cc(-n3cc(CC(=O)O)c4ccccc43)ccc2s1 [Example 149] | 
52 | < 10 | Cc1c(Cl)cccc1-c1ccc(-n2cc(CC(=O)O)c3ccccc32)cc1 [Example 150] | 
53 | < 10 | O=C(O)Cc1cn(-c2ccc(-c3cc(Cl)cc(Cl)c3)cc2)c2ccccc12 [Example 151] | 
54 | < 10 | O=C(O)Cc1cn(-c2ccc(-c3cccc(C(F)(F)F)c3)cc2)c2ccccc12 [Example 152] | 
55 | < 10 | O=C(O)Cc1cn(-c2ccc(-c3ccccc3Cl)cc2)c2ccccc12 [Example 153] | 

Row | IC50 [1] [µM] | Compound | further results
56 | < 10 | Cc1ccccc1-c1ccc(-n2cc(CC(=O)O)c3ccccc32)cc1 [Example 154] | 
57 | < 10 | CSc1cccc(-c2ccc(-n3cc(CC(=O)O)c4ccccc43)cc2)c1 [Example 155] | 
58 | 10 to 50 | Cc1cc(NC(=O)Cc2ccccc2)ccc1-n1cc(CC(=O)O)c2ccccc21 [Example 156] | 
59 | 10 to 50 | Cc1cc(NC(=O)Cc2cccs2)ccc1-n1cc(CC(=O)O)c2ccccc21 [Example 157] | 
60 | 10 to 50 | Cc1cc(NC(=O)c2cccs2)ccc1-n1cc(CC(=O)O)c2ccccc21 [Example 158] | 
61 | 10 to 50 | Cc1cc(NC(=O)CSc2ccccc2)ccc1-n1cc(CC(=O)O)c2ccccc21 [Example 159] | 
62 | 10 to 50 | CC(=O)N(C)c1ccc(-n2cc(CC(=O)O)c3ccccc32)c(C)c1 [Example 160] | 
63 | < 10 | O=C(O)Cc1cn(-c2ccc(NCc3ccccc3)cc2)c2ccccc12 [Example 161] | 
64 | < 10 | CN(Cc1ccccc1)c1ccc(-n2cc(CC(=O)O)c3ccccc32)cc1 [Example 162] | 
65 | 10 to 50 | Cc1oncc1C(=O)Nc1ccc(-n2cc(CC(=O)O)c3ccccc32)cc1 [Example 163] | 
66 | 10 to 50 | O=C(O)Cc1cn(-c2ccc(NC(=O)Cc3ccsc3)cc2)c2ccccc12 [Example 164] | 
67 | 10 to 50 | CCN(Cc1ccccc1)c1ccc(-n2cc(CC(=O)OC)c3ccccc32)cc1 [Example 165] | 
68 | < 10 | CCN(Cc1ccccc1)c1ccc(-n2cc(CC(=O)O)c3ccccc32)cc1 [Example 166] | 
69 | < 10 | CC(C)N(Cc1ccccc1)c1ccc(-n2cc(CC(=O)O)c3ccccc32)cc1 [Example 167] | 
70 | 10 to 50 | O=C(O)Cc1cn(-c2ccc(N(CCO)Cc3ccccc3)cc2)c2ccccc12 [Example 168] | 
71 | < 10 | O=C(O)Cc1cn(-c2ccc(N(Cc3ccccc3)Cc3ccccc3)cc2)c2ccccc12 [Example 169] | 
72 | 10 to 50 | CCCN(Cc1ccccc1)c1ccc(-n2cc(CC(=O)O)c3ccccc32)cc1 [Example 170] | 
